# Key:
# male ICR mice [1] = assay: Novel Object Recognition (NOR) test, scopolamine-induced amnesia; type: in vivo, mouse; settings: for effect on episodic short-term memory (DI vs amnesic group): donepezil 1 mg/kg, oxazolone (1) 5, 10, 25 and 100 μmol/kg, i.p.; for Discrimination Index (DI): scopolamine-treated mice, n = 5, mean ± SE
# Method: (§1) The experimental protocols were submitted and approved by the Bioethics Committee of the Faculty of Medicine and Psychology, Autonomous University of Baja California University, Tijuana, México (Record No. 666/2021-2). To perform the in vivo cognitive test experiments, male ICR mice eight weeks of age were used. The animals were housed with access to water and food under a 12 h light and dark cycle, with controlled temperature and humidity.
# (§2) To carry out the cognition experiments, we used the methods previously described in detail by Arunrungvichian K., et al., 2015, in which they produced pharmacological amnesia using scopolamine in a mouse model. […] All compounds were administered by intraperitoneal injection in a volume of 5 mL/kg. Saline solution was used for the vehicle group (SH).
# We employed the Novel Object Recognition Test (NOR) to assess recognition memory, a valuable tool for evaluating cognitive impairment in rodents and testing the impact of new drugs on cognition. This test involves an open-field arena containing two distinct types of objects, each with unique colors and shapes for easy discrimination. The basis of this test lies in rodents’ natural inclination to spend more time exploring a new object compared to a familiar one, leading to the calculation of a Discrimination Index (DI).
# The testing procedure unfolded as follows: On the first day, the mice were allowed to freely explore the open-field apparatus for 5 min to become accustomed to the environment. On the second day, oxazolone 1, DZ, and SH were administered 1 h prior, while SC was given 30 min before the acquisition trial. During this trial, the mice were introduced to the apparatus with two identical objects. After spending 10 min in their cages, one of the objects was replaced with a new one, and the mice were granted 5 min to explore these objects during the retention trial. We meticulously recorded the time the mice spent exploring each object, defined as when their noses approached within 3 cm or when they made contact with the objects. The DI was calculated as (TN – TF)/(TN + TF), with TN representing the exploration time of the new object and TF indicating the exploration time of the familiar object.
# male ICR mice [2] = assay: Spatial working memory, modified Y-maze, scopolamine-induced amnesia; type: in vivo, mouse; settings: for Percentage of unfamiliar arm exploration: n = 5
# Method: as §1, §2
# We use the maze used in the spontaneous alternation tests except for the use of a partition to close one of three arms. Here, mice, throughout multiple arm entries, should tend to enter a less recently visited arm or an unfamiliar arm of the maze. The mice were injected with compound 1, SH, DZ, and scopolamine (1 h and 30 min) before starting experiments. Each mouse was placed at the end of one arm and allowed to move freely for 5 min to get familiar with the two open arms. All arms were opened after 30 min of resting to allow entering in all three arms. An entry was counted if mice accessed an arm at least 10 cm. The percentage of unfamiliar arm exploration was calculated as Equation (2):(2) Percentage of unfamiliar arm exploration=number of unfamiliar arm entry/number of all arms entry×100
# male ICR mice [3] = assay: Y-maze spontaneous alternation test; type: in vivo, mouse; settings: 1 h before, 8 min in Y-maze, n = 5, mean ± SE
# Method: as §1, §2
# [4] = biological target: T1, human acetylcholinesterase (hAChE) (Homo sapiens, UniProt P22303); assay: Kinetic determinations of reversible hAChE inhibition (Ellman assay); type: biochemical; settings: for Ki: room temperature, 0.1 M PBS pH 7.4, n = 3, read-out: Inhibition Constant (Ki); for Parameter α: α of Vmax and Km referred to control AChE activity, mixed model inhibition; for decrease in inhibition potency compared to (1): from Ki values
# T1 construct: purchased Sigma Aldrich; host or cells: HEK 93 cells (so in the source)
# T1 sequence (P22303 32-614): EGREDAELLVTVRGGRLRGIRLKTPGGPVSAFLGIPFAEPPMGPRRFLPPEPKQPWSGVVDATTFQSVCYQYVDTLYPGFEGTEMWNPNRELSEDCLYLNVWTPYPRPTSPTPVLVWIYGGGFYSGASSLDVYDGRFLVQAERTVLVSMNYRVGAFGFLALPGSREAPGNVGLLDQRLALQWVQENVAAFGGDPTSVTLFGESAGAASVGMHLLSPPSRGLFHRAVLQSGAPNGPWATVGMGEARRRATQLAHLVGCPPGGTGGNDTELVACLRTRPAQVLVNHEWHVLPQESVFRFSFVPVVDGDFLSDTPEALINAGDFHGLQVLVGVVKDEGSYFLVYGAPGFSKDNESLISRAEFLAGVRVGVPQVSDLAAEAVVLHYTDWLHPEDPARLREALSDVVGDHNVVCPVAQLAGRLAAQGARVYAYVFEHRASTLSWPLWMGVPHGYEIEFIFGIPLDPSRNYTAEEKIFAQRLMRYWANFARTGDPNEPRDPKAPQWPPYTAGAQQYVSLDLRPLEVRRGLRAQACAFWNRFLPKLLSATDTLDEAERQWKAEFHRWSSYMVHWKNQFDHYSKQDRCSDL
# Method: (§3) Recombinant hAChE expressed in HEK 93 cells, a lyophilized powder (Sigma Aldrich, Mexico), was dissolved in TBSA/sodium azide 0.02% and then was stored in aliquots at −20 °C. Each aliquot was diluted as required in a solution of PBS 0.1M pH 7.4/BSA 0.01% on the day of the experiment.
# Reversible inhibition assays from all hAChE were measured using a spectrophotometric Ellman assay at room temperature in 0.1 M PBS pH 7.4, containing 0.01% BSA, containing DTNB 300 µM as a chromogen. The equilibrium dissociation constant (Ki) of the hAChE–oxazolone conjugate was determined using different substrate concentrations (s) ranging from 0.05 to 0.200 mM, and at least four different concentrations of the oxazolones (i) were applied at a given substrate concentration in order to obtain hAChE inhibition between 20% and 80% to establish the affinity for each hAChE–oxazolone conjugate combination. The enzyme activity (ν) was plotted versus the substrate concentration [S] analyzed by non-linear regression analysis (Michaelis–Menten plot); data were transformed into a double reciprocal Lineweaver–Burk plot. Plots 1/ν versus 1/[S] were generated by plotting the slope versus the oxazolone concentration and the ordinate versus the oxazolone concentration of the primary plot. The processing of experimental data to define the oxazolones affinity was performed by a linear regression analysis where the y-intercept determines the enzyme-inhibitor dissociation constants (Ki), while the x-intercept determines the enzyme-substrate dissociation constant (Ks). The equation was used assuming that the substrate, due to low substrate concentrations used in experiments, binds only to the catalytic site, while the inhibitor can bind to both sites, catalytic and peripheral. To determine the mechanism of inhibition, we used the dose-response curves fitted using the Mixed Model Inhibition by the constants Vmax and Km calculated from Michaelis–Menten kinetics that includes competitive, uncompetitive, and non-competitive inhibition as special cases. The GraphPad Prims 6.0 software, San Diego, CA, USA was used to calculate the kinetics. All data are shown as means of n = 3.
# [5] = biological target: T1, human acetylcholinesterase (hAChE); assay: hAChE inhibitory screening (Ellman method); type: biochemical; settings: n = 3
# Method: as §3
# The spectrophotometric method of Ellman was used to evaluate the inhibition of hAChE. The assay was carried out by double beam UV-Vis 6705 Janway spectrophotometer at room temperature, using optical polystyrene cuvettes of 1.0 cm path length (10 × 10 × 45 mm, 340–800 nm optical transparency). Each test compound was dissolved in ethanol. […] Aliquots of 970 μL of PBS 0.1 M pH 7.4/BSA 0.01% containing DTNB (300 μM) and 10 μL of hAChE (0.2 μM) were placed in the polystyrene cuvette. An amount of 10 μL of a stock solution to obtain a final concentration of 100 or 300 μM of the tested compound was added. In total, 10 μL of an aqueous solution of acetylthiocoline 10 mM was added to start the reaction. The absorbance of the sample by the generation of the yellow 5-nitro-2-tio-benzoic anion was recorded at 412 nm at room temperature after 1 min. As a control, an identical enzyme solution without the inhibitor was processed following the same protocol to determine 100% of enzyme activity. […] Each experiment was repeated at least in triplicate. The capacity of each compound to inhibit hAChE was expressed as percent inhibition calculated using Equation (1):(1) Inhibition(%)=Ac−Ai×100/Ac where Ac and Ai represent the change in the absorbance in the […], respectively.
# [6] = biological target: T1, human acetylcholinesterase (hAChE); assay: Estimation of IC50 values on hAChE (Ellman, 96-microwell plates); type: biochemical; settings: room temperature, 0.1 M PBS pH 7.4; n = 3
# Method: as §3
# The concentrations of test compounds that inhibited the hydrolysis of substrates by 50% (IC50) were determined by monitoring the effect of various concentrations of oxazolones in the assays on the inhibition values. To study the potency, the oxazolones with an inhibition greater than 50% were selected, taken from the screening test results at 300 μM. All the inhibition studies were performed at room temperature in 96-microwell plates using Multiskan FC 5111900 (Lab Systems, CA, USA). The DTNB was used for the measurement of hAChE activity. In total, 174 μL in 0.1 M PBS pH 7.4/0.01% BSA, containing 300 μM DTNB final concentration, 2 μL of test-compound solution, and 2 μL of hAChE solution (0.2 μM) were mixed. The reaction was then initiated by adding 2 μL acetylthiocholine (10 mM), and the plate was read immediately. The formation of yellow 2-nitro-5-tiobenzoico acid due to the reaction of DTNB with thiocholine monitored the enzymatic hydrolysis of acetylthiocholine. Measures were at a wavelength of 412 nm at room temperature after 1 min. The IC50 values were then calculated using the GraphPad Prism 6.0 software (San Diego, CA, USA). All data are shown as means of n = 3.
Structure (SMILES),Mode of Inhibition [4],Ki [4],Parameter α [4],IC50 [6],further results
"COc1cc2c(cc1OC)C(=O)C(CC1CCN(Cc3ccccc3)CC1)C2 (centres unmarked) [Donepezil, donepezil, reference compound]",–,–,–,–,"effect on episodic short-term memory (DI vs amnesic group) (male ICR mice [1]): substantially improved episodic short-term memory; effect on cognitive decline induced by scopolamine (novel arm exploration) (male ICR mice [2]; 1 mg/kg i.p., p < 0.001 vs scopolamine group): notably reversed"
"O=C1OC(/C=C/c2ccccc2)=NC/1=C\c1ccccc1 [Oxazolone 1, 4-((Z)-benzylidene)-2-((E)-styryl)oxazol-5(4H)-one]",Competitive,2.08 ± 0.36 µM,21.84,9.2 ± 2.3 µM,"locomotor activity, number of arm entries (male ICR mice [3]; 5 μmol/kg i.p.): 31.8 ± 2.1 entries; locomotor activity, number of arm entries (male ICR mice [3]; 50 μmol/kg i.p.): 34 ± 2.3 entries; Discrimination Index (DI) (male ICR mice [1]; 10 μmol/kg i.p.): 0.317 ± 0.051; Discrimination Index (DI) (male ICR mice [1]; 100 μmol/kg i.p.): 0.360 ± 0.056; effect on episodic short-term memory (DI vs amnesic group) (male ICR mice [1]): substantially improved episodic short-term memory; inhibition at 100 µM ([5]; 100 μM compound): 61.3%; Percentage of unfamiliar arm exploration (male ICR mice [2]; 25 μmol/kg i.p., scopolamine-treated mice, mean ± SE): 37.83 ± 0.7%; Percentage of unfamiliar arm exploration (male ICR mice [2]; 100 μmol/kg i.p., scopolamine-treated mice, mean ± SE): 48.30 ± 5.4%"
"Cc1ccc(/C=C2N=C(/C=C/c3ccccc3)OC\2=O)cc1 [Oxazolone 2, 4-((Z)-4-methylbenzylidene)-2-((E)-styryl)oxazol-5(4H)-one]",Competitive,108 ± 7.77 µM,4.98,95.5 ± 1.47 µM,–
"O=C1OC(/C=C/c2ccccc2)=NC/1=C\c1ccc(Cl)cc1 [Oxazolone 3, 4-((Z)-4-chlorobenzylidene)-2-((E)-styryl)oxazol-5(4H)-one]",Competitive,98.4 ± 24 µM,>1000,89.3 ± 22.3 µM,Inhibition (%) of hAChE ([5]; 100 μM compound): inactive; Inhibition (%) of hAChE ([5]; 300 μM compound): moderate inhibitory activity
"COc1ccc(/C=C2N=C(/C=C/c3ccccc3)OC\2=O)cc1 [Oxazolone 4, 4-((Z)-4-methoxybenzylidene)-2-((E)-styryl)oxazol-5(4H)-one]",Competitive,157 ± 46 µM,4.16,137 ± 34.2 µM,inhibition at 100 µM ([5]; 100 μM compound): 49%
"CC(=O)Oc1cccc(/C=C2N=C(/C=C/c3ccccc3)OC\2=O)c1 [Oxazolone 5, 3-((Z)-(5-oxo-2-((E)-styryl)oxazol-4(5H)-ylidene)methyl)phenyl acetate]",Non-competitive,183 ± 46 µM,1,204 ± 39.7 µM,–
"CC(=O)Oc1ccc(/C=C2N=C(/C=C/c3ccccc3)OC\2=O)cc1 [Oxazolone 6, 4-((Z)-(5-oxo-2-((E)-styryl)oxazol-4(5H)-ylidene)methyl)phenyl acetate]",uncompetitive,198 ± 49.5 µM,0.006,246 ± 51.2 µM,decrease in inhibition potency compared to (1) [4]: approximately 100 fold
"CC(=O)Oc1cccc(/C=C2N=C(/C=C/c3ccccc3)OC\2=O)c1O [Oxazolone 7, 2-hydroxy-3-((Z)-(5-oxo-2-((E)-styryl)oxazol-4(5H)-ylidene)methyl)phenyl acetate]",Competitive,67 ± 19 µM,18.27,37.1 ± 1.61 µM,decrease in inhibition potency compared to (1) [4]: roughly 33 fold
"CN1[C@@H]2C[C@@H](OC(=O)[C@H](CO)c3ccccc3)C[C@H]1[C@@H]1O[C@@H]12 [scopolamine, reference compound]",–,–,–,–,"Percentage of unfamiliar arm exploration (male ICR mice [2]; scopolamine group, 1 mg/kg i.p. 30 min before): 28.58 ± 5%"

# Reference: PMC10649417, “Inhibitory Activity of 4-Benzylidene Oxazolones Derivatives of Cinnamic Acid on Human Acetylcholinesterase and Cognitive Improvements in a Mouse Model” (Molecules, 2023)
